Data on one molecule can be found in patent publication US20230310352A1, “NOVEL COMPOSITIONS AND METHODS FOR THE TREATMENT OF LUNG FIBROSIS” (LAURENT PHARMACEUTICALS INC., priority 2020, published 2023).

Entries after “also recorded” stand apart in the source; their conditions may differ.

The subject of test [1] is bleomycin-induced lung fibrosis. Kind of test: Intratracheal bleomycin mouse model of pulmonary fibrosis (21-day model). It is filed as in vivo, C57BL/6N mice. Conditions: Day 21, oral once daily for 14 days. On the procedure: Oral administration of a solid amorphous dispersion formulation of fenretinide (LAU-7b SDI) was evaluated in treating and/or reducing pulmonary fibrosis in mouse model of lung fibrosis induced via a single intratracheal administration of bleomycin followed by vehicle, fenretinide (LAU-7b SDI) or pirfenidone oral treatment for 21 days. The LAU-7b SDI formulation was obtained by spray drying and contains fenretinide in amorphous form in a solid dispersion comprising a matrix polymer, based on the following formula: 40% fenretinide, 59.6% povidone (KOLLIDON® 30), 0.24% butylated hydroxyanisole (BHA) and 0.16% butylated hydroxytoluene (BHT).
Male C57BL/6N mice from Charles River Laboratories, 10-12 weeks of age, weighing around 20-25 g, at the time of their enrolment, received 50 μL of bleomycin sulfate (2.0 mg/kg) by a single intratracheal instillation on Day 1 of the study. The Sham group received an equivalent volume of 0.9% saline. On Day 7 post-bleomycin instillation the animals were randomized in groups of 8 animals based on their body weight loss and Penh value. Oral dosing by gavage (10 mL/kg) with the vehicle (sham and BLM Control groups), LAU-7b SDI (fenretinide at 5 mg/kg and 10 mg/kg dose), and the reference compound (pirfenidone 100 mg/kg) were initiated once daily starting from Day 7 to Day 21. Two hours following the last dose on Day 21 all the mice were sacrificed, the lungs of each mouse were harvested, flushed with 0.9% NaCl and inflated with 10% neutral buffered formalin solution. After embedding and mounting of the lung tissue (transversal slices of 5 μm thickness), the histology slides were stained with hematoxylin/eosin for the Ashcroft score evaluation by a treatment-blinded pathologist, and with Sirius red staining for automated fibrosis quantification (Biocellvia, France).
As in Example 4, the key endpoints evaluated in this study were the Ashcroft score, pulmonary foci and collagen content obtained by histological assessment of the lung tissue at the end of the study. Statistical analysis was made on normally distributed data by one-way ANOVA followed by multiple comparisons (Fisher's LSD post hoc test) to assess the difference between the groups, using Graph Pad Prism Software version 8.0 (San Diego, CA, USA). Differences were considered statistically significant when P values were p<0.05 (*), or p<0.01 (**) or p<0.001 (***). The Ashcroft score was assessed in the lung tissue by treatment-blinded pathologist on the H&E stained histology slides (2 cross sections/animal) and using the modified Ashcroft scale. Briefly, each lung section was scanned at a magnification of ×100 (H&E staining), and graded from 0 (normal lung) to 8 (total fibrotic obliteration of the field). The mean value of the grades obtained for each of the two sections was used as the Ashcroft score.
Pulmonary foci (fibrotic tissue) and lung collagen content were quantified in the Sirius red stained lung tissue histology sections by high resolution, automated digital image analysis (Biocellvia, France) on Day 21 after lung fibrosis induction by bleomycin (BLM) instillation and following a 14-day oral gavage treatment with LAU-7b SDI (fenretinide, two doses), pirfenidone (reference drug) or vehicle only. Full field analysis of 2 lung sections per animal was conducted and the results were expressed as a mean percentage of total surface. This test is considered highly reliable, offering reproducible and observer-independent assessment of quantitative analysis of fibrosis.

The subject of the next test is human lung microtissues. Briefly: Immunostaining of fibrotic markers (α-SMA, pro-collagen type 1) in TGF-β1 fibrosis-induced 3D lung microtissues. Type of test: cell-based. The text has this:
To confirm the findings of the NHLF cells, the effects of fenretinide administration was observed on a newly developed in vitro model arrays of 3D microtissues that are suspended over multiple flexible micropillars. Progression of lung fibrosis is characterized by stiffening of the membranous tissue that makes up the alveolar air sacs, caused by the accumulation of highly contractile and collagen-producing myofibroblasts. To model the physio-pathological characteristics of lung fibrosis in vitro, different experimental systems have been developed. Planar 2D culture-based assays offer multiparameter readout of fibrotic cellular markers, but they have very limited capacity to measure or reproduce tissue mechanics. In order to recapitulate dynamic changes in tissue mechanics during fibrogenesis, a newly validated membranous human lung microtissues array was used, that models key biomechanical events occurred during lung fibrogenesis, including progressive stiffening and contraction of alveolar tissue, decline in alveolar tissue compliance, and traction force-induced bronchial dilation. This new 3D array of membranous lung microtissues model of lung fibrosis had been validated using two FDA-approved antifibrosis drugs, pirfenidone and nintedanib. This model was further extended to larger lung tissue arrays, to mimic the traction on alveoli as a model of bronchiectasis. (Asmani M. et al, 2018, Nature Com, 9:2066)
The lung microtissue chip system used is based on bio-MEMS technology that can assemble 3D cell-populated submillimeter microtissues in arrays of polydimethylsiloxane (PDMS) microwells. In each microwell, human lung fibroblasts or epithelial cells spontaneously contract and assemble the matrix proteins, such as collagen, into microtissues that anchor on top of an array of micropillars. The flexible micropillars serve as in situ force sensors that can report the contractile force generated by the tissue. […]
These observations are further described in Table 1, which presents fenretinide induced reduction of alpha smooth muscle actin (α-SMA) and pro-collagen expression and contractile forces induced by TGF-β1 in lung microtissue in preventative and therapeutic treatment measured as a percentage.

The test system of test [2] is Normal human lung fibroblast cells (NHLF cells, ATCC CRL-7000). Kind of test: αSMA mRNA transcript by qRT-PCR after TGF-β1 exposure in NHLF. Conditions: TGF-β1 2 ng/mL + fenretinide 1, 2, 3, 4 μM, 3 days, 5% FBS. Type of test: cell-based. On the procedure: Normal human lung fibroblast cells (NHLF cells, ATCC CRL-7000, EMEM media; 5% FBS) were incubated for 3 days at 37° C. and treated with TGF-β1 (2 ng/mL) or TGF-β1 (2 ng/mL)+Fenretinide (1, 2, 3, 4 μM). At the end of the 3 day-treatment period, media was removed using a vacuum pump and total ribonucleic acid (RNA) was isolated using the TriReagent protocol (BioShop) and cDNA was obtained by reverse transcription using the SUPERSCRIPT® VILO®. αSMA transcript levels were determined by quantitative real-time Polymerase Chain Reaction (qRT-PCR) using the Fast SyBR Master Mix and specific probes, and quantified following the ΔΔCT, normalized to PUM-1 expression as internal control. The experiment was performed in quadruplicate (4 wells/condition).
(In general: Quantitative PCR measures a nucleic acid by following its amplification.)

Where [3] appears, read: fenretinide 5 mg/kg (as LAU-7b SDI).
Where [4] appears, read: fenretinide 10 mg/kg (as LAU-7b SDI), pirfenidone 100 mg/kg.
The mark [5] stands for this setting: preventative treatment, 2 μM, 6 days.
Setting [6] is: preventative treatment, 4 μM, 6 days.
The mark [7] stands for this setting: preventative, co-administered with TGF-β1 5 ng/ml for 6 days, 2 μM and 4 μM.
The mark [8] stands for this setting: therapeutic treatment, added day 3 to day 6, 2 μM.
The mark [9] stands for this setting: therapeutic treatment, added day 3 to day 6, 4 μM.

Take `CC1=C(/C=C/C(C)=C/C=C/C(C)=C/C(=O)Nc2ccc(O)cc2)C(C)(C)CCC1` [fenretinide, 4-hydroxyphenyl retinamide]: in test [1] (setting [3]), the “Ashcroft score vs BLM control” value is reported as “also reduced”; the “percentage of collagen content, automated Sirius red analysis, vs BLM control” value is “did not induce statistically significant reduction”; the “percentage of pulmonary foci, automated Sirius red analysis, vs BLM control” value is given as “did not induce statistically significant reduction”. Also, in test [1] (setting [4]), the “Ashcroft score vs BLM control” value is given as “reduced significantly”; the “percentage of collagen content, automated Sirius red analysis, vs BLM control” value is recorded as “reduced significantly (p<0.05)”; the “percentage of pulmonary foci, automated Sirius red analysis, vs BLM control” value is “reduced significantly (p<0.05)”. In the test on human lung microtissues (setting [5]), the “pro-collagen, reduction of expression induced by TGF-β1, percentage change” value (shortened to “pro-collagen, reduction … percentage change”) stood at 88.0% and the “α-SMA, reduction of expression induced by TGF-β1, percentage change” value (shortened to “α-SMA, reduction … percentage change”) was 45.0%. Further, in the test on human lung microtissues (setting [6]), the “pro-collagen, reduction … percentage change” value worked out at 81.0% and the “α-SMA, reduction … percentage change” value was found to be 37.0%. Also, in the test with human lung microtissues (setting [7]), the “expression of pro-collagen type 1 (fluorescent intensity)” value was “increasingly inhibited by increasing fenretinide concentrations” and the “expression of α-SMA (fluorescent intensity)” value is given as “increasingly inhibited by increasing fenretinide concentrations”. In addition, in the test with human lung microtissues (setting [8]), the “pro-collagen, reduction … percentage change” value was found to be 39.0% and the “α-SMA, reduction … percentage change” value turned out to be 56.0%. In the test on human lung microtissues (setting [9]), the “pro-collagen, reduction … percentage change” value came to 58.0% and the “α-SMA, reduction … percentage change” value amounted to 72.0%. For the same molecule, the “induction of α-SMA fibrotic marker expression (mRNA, qRT-PCR)” value in test [2] is given as “attenuates, in a dose-dependent manner; also recorded: dose-dependent attenuation”.
